Data published in patent US20260232753A1, “COMPOSITION FOR TREATING MACULAR DEGENERATION COMPRISING NOVEL PEPTIDE” (EYEBIOKOREA, INC., priority 2021, published 2026).
Values after ≈ are worked out from the molar mass of the structure shown. Where a SMILES comes first, the peptide text is derived from it. Where no end group is shown, it is not given here. [ ]: non-standard residue; d: D form. Hyp = O=C(O)[C@@H]1C[C@@H](O)CN1; Tle = CC(C)(C)[C@H](N)C(=O)O; Aib = CC(C)(N)C(=O)O

Key:
[1] = Solubility of the peptide in water (Korean Pharmacopoeia method); format: physicochemical; conditions: 20±5° C.; for solubility: within 30 minutes
Method: In order to evaluate the solubility of the peptide of the present invention, an experiment was performed as follows.
The solubility test was conducted based on the Korean Pharmacopoeia method, and the solubility was determined as the degree to which 0.1 g of peptide was dissolved within 30 minutes when added to 10 mL of water and shaken vigorously for 30 seconds every 5 minutes at 20±5° C.

[2] = Stability of the peptide: content analysis by HPLC in aqueous solution under harsh conditions; format: physicochemical
Method: In order to evaluate the stability of the peptide of the present invention, an experiment was performed as follows.
The stability of the peptide was confirmed through content analysis in an aqueous solution at 40° C., 75% humidity, and harsh conditions, and was analyzed using HPLC under the following conditions. • Analysis column: C18 (4.6 Y 250 mm, 5 μm, YMC Hydrosphere) • Analysis wavelength: ultraviolet absorption spectrophotometer (210 nm) • Injection volume/Flow rate: 10 μL/0.8 mL/min • Column temperature: 45° C. • Mobile phase: 0.1 M phosphate buffer methanol mixture (83:17)

[3] = tested on: choroidal neovascularization (CNV); assay: Inhibition of choroidal neovascularization: fluorescence value (CTF) at the CNV site by FFA, laser-induced CNV model, intravitreal injection; format: in vivo, C57BL/6 mice; conditions: laser-induced CNV; 1 μL intravitreal, peptide 10 mg/mL or aflibercept 20 mg/mL; ten days after administration; lower CTF = less CNV
Excerpt: (§1) The CNV animal model used in the present invention is a mouse model in which lesions are induced by irradiating a laser to the choroid of C57BL/6 mice using a laser slit system. The laser-induced CNV model, first described in 1979, uses photocoagulation to disturb Bruch's membrane to induce the growth of choroidal neovascularization into the retina area, and it is similar in development to neovascular disease in the human retina, that is, wet macular degeneration (wet AMD), in that neovascularity arises from the choroid. In addition, the laser-induced CNV model was successful in predicting the clinical efficacy of anti-vascular endothelial growth factor (VEGF) treatment for neovascular AMD, and is an animal model used in the development stage of existing therapeutic agents (Gong Y, Li J, Sun Y, Fu Z, Liu C H, Evans L, et al. (2015) Optimization of an Image-Guided Laser-Induced Choroidal Neovascularization Model in Mice. PLOS ONE 10 (7)).
(§2) In order to evaluate the efficacy of the peptide of the present invention to inhibit the choroidal neovascularization (CNV), an experiment was performed as follows.
(§3) The eyes of 7-8 week old C57BL/6 mice were instilled with a mydriatic agent to dilate the pupils, and the mice were anesthetized by intraperitoneal injection of ketamine (50 mg/kg) and rompun (23.32 mg/kg). A slit-lamp laser injection system was used to irradiate the laser to the choroid of each eye of the mouse four times in the 12 o'clock, 3 o'clock, 6 o'clock, and 9 o'clock directions. At this time, the laser irradiation conditions were 532 nm, 80 msec, and 240 mW. Immediately after laser irradiation, 1 μL of each peptide at a concentration of 10 mg/mL or aflibercept at a concentration of 20 mg/mL, which was dissolved in PBS, was injected into the vitreous body using a syringe. Ten days after drug administration, the mice were anesthetized, and 2% fluorescein was administered to the abdominal cavity to stain blood vessels. The retina was photographed 2 to 3 minutes after fluorescein administration. The size and fluorescence value of CNV lesions induced by laser were measured using the ImageJ program, and in order to reduce the differences between subjects, the CTF (corrected total fluorescence) was calculated by removing the background, and the values of each group were compared. The results of all tests are expressed as mean±standard deviation, and significance was verified using one-way ANOVA and Kruskal-wallis test.

[4] = tested on: choroidal neovascularization (CNV); assay: Inhibition of choroidal neovascularization: electroretinography, b-wave amplitude as indicator of retinal function; format: in vivo, C57BL/6 mice; conditions: laser-induced CNV; 1 μL intravitreal, peptide 10 mg/mL or aflibercept 20 mg/mL; single white light 0.9 cd·sec/m^2
Excerpt: as §1, §2
The eyes of 7-8 week old C57BL/6 mice were instilled with a mydriatic agent to dilate the pupils, and the mice were anesthetized by intraperitoneal injection of ketamine (50 mg/kg) and rompun (23.32 mg/kg). A slit-lamp laser injection system was used to irradiate the laser to the choroid of each eye of the mouse four times in the 12 o'clock, 3 o'clock, 6 o'clock, and 9 o'clock directions. At this time, the laser irradiation conditions were 532 nm, 80 msec, and 240 mW. Immediately after laser irradiation, 1 μL of each peptide at a concentration of 10 mg/mL or aflibercept at a concentration of 20 mg/mL, which was dissolved in PBS, was injected into the vitreous body using a syringe. For electroretinogram analysis, dark adaptation was performed for more than 12 hours. The mice were subjected to mydriasis in a dark room and anesthetized, and then electroretinography was performed by contacting the ground electrode to the tail, the reference electrode to the head, and the corneal electrode to the cornea. The response values were obtained by stimulating the retina with a single white light of 0.9 cd·sec/m^2 flash intensity, and the amplitude, which is determined from the trough of the a-wave to the peak of the b-wave, was measured and evaluated as an indicator of retinal function. The results of all tests are expressed as mean #standard deviation, and significance was verified using one-way ANOVA and Kruskal-wallis test.

[5] = tested on: choroidal neovascularization (CNV); assay: Inhibition of choroidal neovascularization: optical coherence tomography, size of CNV lesion, intravitreal injection; format: in vivo, C57BL/6 mice; conditions: laser-induced CNV; 1 μL intravitreal, peptide 10 mg/mL or aflibercept 20 mg/mL; ten days after administration; OCT
Excerpt: as §1, §2
as §3, with “and” for “and 2% fluorescein was administered to”, “the” for “the abdominal cavity to stain blood vessels. The retina was photographed 2 to 3 minutes after fluorescein administration. The size and fluorescence value of”, “calculated and expressed as μm^2” for “measured”, “program” for “program, and in order to reduce the differences between subjects, the CTF (corrected total fluorescence) was calculated”, “transmitting an OCT beam for” for “removing the background, and the values of”, “burn.” for “group were compared.”

[6] = tested on: neovascularity; assay: Eye drop efficacy to inhibit neovascularity in Vldlr knockout mice: lesion area by retinal fluorescence imaging; format: in vivo
Excerpt: A symptom of neovascular macular degeneration is retinal angiomatous proliferation (RAP), which occurs in approximately 12 to 15% of patients who are newly diagnosed with neovascular macular degeneration. Meanwhile, Vldlr is known to be one of the functional candidate genes for human macular degeneration, and mice in which Vldlr is knocked out (−/−) show retinal hemangioma proliferation along with subretinal neovascularization. Therefore, in order to evaluate the neovascularity inhibitory efficacy of the eye drop comprising the peptide of Example 43 (002-175), which was confirmed to be an excellent peptide through the above test examples, in Vldlr knockout (−/−) mice, an animal model of neovascular macular degeneration disease, an experiment was performed as follows.
From 6 weeks of age (P42) to 14 weeks of age (P98), Vldlr^−/− mice were instilled with the eye drop comprising the peptide of Example 43 (002-175) twice a day, and as a positive control group, aflibercept at a concentration of 20 mg/mL was intraocularly injected once, 1 μL each, into the vitreous body of 6 week old mice. The eyes of the mice were instilled with a mydriatic agent to dilate the pupils, and then the mice were anesthetized by intraperitoneal injection of ketamine (50 mg/kg) and rompun (23.32 mg/kg), and 2% fluorescein was injected to the abdominal cavity to stain blood vessels. Images were acquired through retinal fluorescence imaging, and the lesion area was calculated using the ImageJ program, and the results of the experiment are shown in FIGS. 10 and 11.

| solubility [1] [mg/mL] | Compound | CTF (corrected total fluorescence) value [3] | b-wave amplitude [4] [μV] | Size of lesion [5] | other results |
| --- | --- | --- | --- | --- | --- |
| ≥ 330 | CC(C)C[C@H](NC(=O)CNC(=O)[C@H](CCC(=O)O)NC(=O)[C@H](CCC(N)=O)NC(=O)CNC(=O)[C@@H]1C[C@@H](O)CN1)C(=O)N[C@@H](C)C(=O)O [Example 40, Hyp-Gly-Gln-Glu-Gly-Leu-Ala] (H-[Hyp]GQEGLA-OH; N-terminus and C-terminus assumed) | – | – | – | – |
| ≥ 500 | CC(C)C[C@H](NC(=O)C(C)(C)NC(=O)[C@H](CCC(=O)O)NC(=O)[C@H](CCC(N)=O)NC(=O)CNC(=O)[C@@H]1C[C@@H](O)CN1)C(=O)N[C@@H](C)C(=O)O [Example 43, Hyp-Gly-Gln-Glu-Aib-Leu-Ala] (H-[Hyp]GQE[Aib]LA-OH; N-terminus and C-terminus assumed) | – | – | – | Solubility (in words) [1]: most excellent solubility; Stability (in words) ([2]; 40° C., 75% humidity, 7 days): most excellent stability |
| 100 (≈ 135 mM) | CC(C)C[C@H](NC(=O)[C@@H](NC(=O)[C@H](CCC(=O)O)NC(=O)[C@H](CCC(N)=O)NC(=O)CNC(=O)[C@@H]1C[C@@H](O)CN1)C(C)(C)C)C(=O)N[C@@H](C)C(=O)O [Example 44, Hyp-Gly-Gln-Glu-tert-Leu-Leu-Ala] (H-[Hyp]GQE[Tle]LA-OH; N-terminus and C-terminus assumed) | – | – | – | – |
| – | Hyp-Gly-Gln-Glu-Leu-Leu-Ala ([Hyp]GQELLA) [Example 41] | + (+: 300,000 to 800,000) | 510 | 4,960 μm^2 | Content after 7 days ([2]; 40° C., 75% humidity, 7 days): 97.555%; Decrease rate ([2]; 40° C., 75% humidity, after 7 days): 0.600%; Initial content ([2]; HPLC, initial): 98.155% |
| – | Hyp-Gly-Gln-Glu-Val ([Hyp]GQEV) [Example 37] | + (+: 300,000 to 800,000) | 400 | 5,775 μm^2 | – |
| – | Hyp-Gly-Gln-Glu-Val-Leu-Ala ([Hyp]GQEVLA) [Example 42] | + (+: 300,000 to 800,000) | 380 | 6,102 μm^2 | – |
| – | aflibercept [reference compound] | + (+: 300,000 to 800,000) | 398 | 5,437 μm^2 | Size of the lesion (area of new blood vessels), course during administration (in words) ([6]; P42 to P98, for aflibercept from the 2nd week): gradually increased again; Size of the lesion (area of new blood vessels), 1 week after administration (in words) ([6]; P49): reduced rapidly; Size of the lesion (area of new blood vessels), after 8 weeks (in words) ([6]; P98): reached a size similar to that of the group administered with vehicle |
